Data reported in patent US7985836B2, “Antimicrobial peptides and methods of identifying the same” (priority 2006, dated 2011).
Like-named read-outs stand apart in the source and are kept apart here. Square brackets hold non-standard residues; d marks the D form. Ends that are not written are not given here. Peptide text beside a SMILES is read from it. Phg = N[C@H](C(=O)O)c1ccccc1

What was measured:
[1] = Analytical reversed-phase HPLC retention time as a measure of hydrophobicity; type: physicochemical; conditions: for tRP, retention time on a reverse-phase column of HPLC as a measure of hydrophobicity: Table 4, 1 ml/min; for tRP, retention time on a reverse-phase column of HPLC as a measure of hydrophobicity / tRP, retention time on a reversed-phase HPLC column as a measure of hydrophobicity: Vydac C18, acetonitrile 5% to 95%; for tRP, retention time on a reversed-phase HPLC column as a measure of hydrophobicity: Table 1, 1 mL/min, ~25° C.
Protocol: Analytical Reversed-Phase HPLC. The retention time of the peptide was measured on an ISCO (Lincoln, Nebr.) HPLC system equipped with a Vydac (Hesperia, Calif.) C18 reversed-phase column (250×4.6 mm) at an ambient temperature of ˜25° C. The peptide was eluted with a linear gradient of acetonitrile (containing 0.1% TFA) from 5% to 95% at a flow rate of 1 mL/min. Peptides were detected by UV absorbance at 215 nm.
Analytical reverse-phase HPLC. The retention time of each peptide was measured on an ISCO HPLC system equipped with aVydac C18 reverse-phase column (250×4.6 mm). The peptide was eluted with a linear gradient of acetonitrile (containing 0.1% TFA) from 5% to 95% at a flow rate of 1 ml/min. Peptides were detected by UV absorbance at 215 nm.

Escherichia coli D21 = conditions: Escherichia coli D21, previous assays (Johansson 1998; Oren 1999); cited from earlier work
wild type E. coli K12 = type: cell-based
Protocol: Antibacterial Assays. The antibacterial activity of the LL-37 peptides and its analogues was analyzed using the standard approach of microdilution (Wang et al. (2005) J. Biol. Chem., 280:5803-5811; Yu et al. (2002) J. Pept. Res., 60:1-9). In brief, a small culture of wild type E. coli K12 was grown overnight. A fresh culture was inoculated with a small aliquot of the overnight culture and incubated at 37° C. until the optical density reached the mid-logarithmic stage. The culture (90 μL each) was then diluted to an A600 of 0.001 and partitioned into a 96-well plate with ˜10^6 cells per well. […] Each peptide assay was repeated 3 times. The plate was then further incubated at 37° C. overnight (˜16 hours) and read on an Ultra Microplate Reader at 620 nm (Bio-TEK Instruments; Winooski, Vt.).

[2] = Cytotoxicity MTT assay, HBMEC; type: cell-based; conditions: normal human cells, peptide concentration that kills 50% of the cells, 68 hours of exposure, read-out: HBMEC LC50
Protocol: (§1) Anticancer Assays. Cytotoxicity studies were performed using the calorimetric MTT assays for assessing cell viability (Mark et al. (1999) Life Sci., 64:1941-1953; Hansen et al. (1989) J. Immunol. Methods, 119:203-210). Three cell lines were used, including drug-resistant KBv, drug-sensitive KB, and the nontransformed human brain microvessel endothelial cells (HBMEC). In brief, the cells were seeded onto 96-well plates at a density of 5000 cells per well. The cells were exposed to various concentrations (5-320 μM) of LL-37 peptides (triplicate assays for each) 24 hours after seeding. After 68 hours of exposure, the peptide solution was replaced with fresh media and followed by cytotoxicity analysis using the MTT assay.
(§2) The MTT assay was performed by incubating the cells with 5 mg/mL of 3-[4,5-dimethylthiazol-2-yl]-2,5-dephenyltetrazolium bromide (MTT) for 2 hours at 37° C. The cells were then solubilized in a 50:50 mixture of dimethyl formamide (DMF) and H2O containing 20% SDS (pH 4.7). The plates were read after overnight incubation. Viability is directly proportional to the amount of metabolic conversion of MTT to formazin in the mitochondria of living cells and is assessed by measuring the absorbance at 550 nm using a Microkinetics Reader (Fisher Biotech). Viability is expressed as a percent of control cells receiving only culture media without any peptides. The data from the cytotoxicity studies were plotted using Microsoft Excel, and the LC50 (concentration resulting in 50% reduction in cell viability) and standard deviations were determined for each peptide.

drug-sensitive KB = type: cell-based; conditions: peptide concentration that kills 50% of the cells; MTT, 68 hours of exposure
Protocol: as §1, §2

drug-resistant KBv = test: Anticancer/cytotoxicity MTT assay, KBv cells; type: cell-based; conditions: peptide concentration that kills 50% of the cells, 68 hours of exposure, read-out: KBv LC50
Protocol: as §1, §2

E. coli strain K12 3000 [3] = conditions: minimum concentration at which E. coli growth is completely inhibited; from Wang et al. (2005) J. Biol. Chem. 280:5803; cited from earlier work
E. coli strain K12 3000 [4] = test: Antibacterial assay, microdilution MIC (Example 2); type: cell-based; conditions: minimum concentration at which E. coli growth is completely inhibited
Protocol: Antibacterial assay. The antibacterial activity of the peptides was analyzed using the standard microdilution approach (Wang et al. (2005) J. Biol. Chem., 280:5803-5811). In brief, a small culture of E. coli strain K12 3000 was grown overnight. A fresh culture was inoculated with a small aliquot of the overnight culture and incubated at 37° C. until the culture reached the logarithmic stage (A600 ˜0.5, 9×10^8 cells/ml). The culture was then diluted to A600 ˜0.001 and partitioned into a 96-well plate with ˜10^6 cells per well (90 μl each). Then, 10 μl aliquots of the peptide at different concentrations (three assays for each) were added to the cultures, allowing the minimum inhibition concentration (MIC) to be measured. The plate was then further incubated overnight (˜16 hours) at 37° C. and read on an Ultra Microplate Reader at 620 nm (Bio-TEK Instruments).

[5] = minimum inhibitory concentration, wild type E. coli K12, overnight (~16 hours) at 37° C.

| Compound | retention time on reversed-phase HPLC (hydrophobicity) [1] [min] | tRP, retention time on a reverse-phase column of HPLC as a measure of hydrophobicity [1] [min] | CC50 at 68 h [2] [µM] | CC50 (drug-resistant KBv) [µM] | other results |
| --- | --- | --- | --- | --- | --- |
| CC[C@H](C)[C@H](NC(=O)[C@H](CCCCN)NC(=O)[C@H](CCCCN)NC(=O)[C@@H](NC(=O)[C@@H](NC(=O)[C@H](CC(=O)O)NC(=O)[C@H](Cc1ccccc1)NC(=O)[C@H](CC(C)C)NC(=O)CN)[C@@H](C)CC)[C@@H](C)CC)C(=O)N[C@@H](C)C(=O)N[C@@H](CCC(=O)O)C(=O)N[C@@H](CO)C(=O)N[C@H](C(N)=O)c1ccccc1 [F13X-aurein 1.2, GLFDIIKKIAESX] (H-GLFDIIKKIAES[Phg]-NH2; N-terminus and C-terminus assumed) | 38.3 | 38.3 |  |  |  |
| CC[C@H](C)[C@H](NC(=O)[C@H](CCCCN)NC(=O)[C@H](CCC(=O)O)NC(=O)[C@H](CCCCN)NC(=O)[C@H](CO)NC(=O)[C@H](CCCCN)NC(=O)[C@H](CCCNC(=N)N)NC(=O)[C@H](Cc1ccccc1)NC(=O)[C@H](Cc1ccccc1)NC(=O)[C@H](CC(=O)O)NC(=O)CNC(=O)[C@H](CC(C)C)NC(=O)[C@@H](N)CC(C)C)C(=O)NCC(=O)N[C@@H](CCCCN)C(=O)N[C@@H](CCC(=O)O)C(=O)N[C@@H](Cc1ccccc1)C(=O)N[C@@H](CCCCN)C(=O)N[C@@H](CCCNC(=N)N)C(=O)N[C@H](C(=O)N[C@H](C(=O)N[C@@H](CCC(N)=O)C(=O)N[C@@H](CCCNC(=N)N)C(=O)N[C@H](C(=O)N[C@@H](CCCCN)C(=O)N[C@@H](CC(=O)O)C(=O)N[C@@H](Cc1ccccc1)C(=O)N[C@@H](CC(C)C)C(=O)N[C@@H](CCCNC(=N)N)C(=O)N[C@@H](CC(N)=O)C(=O)N[C@@H](CC(C)C)C(=O)N[C@H](C(=O)N1CCC[C@H]1C(=O)N[C@@H](CCCNC(=N)N)C(=O)N[C@H](C(=O)N[C@@H](CCC(=O)O)C(=O)N[C@@H](CO)C(=O)O)[C@@H](C)O)C(C)C)[C@@H](C)CC)C(C)C)[C@@H](C)CC [LL-37, reference compound] |  |  |  |  | MIC (Escherichia coli D21): 5 to 25 µM; E. Coli MIC (wild type E. coli K12; [5]): 40 µM |
| FKRIVQRIKDFLR-NH2 [LL-37(17-29), FKRIVQRIKDFLR] |  |  | 55 ± 2 | 60 | E. Coli MIC (wild type E. coli K12; [5]): 40 µM; KB LC50 (drug-sensitive KB): 57 ± 3 µM |
| FKRIVQRIKDFLRNLV-NH2 [LL-37(17-32), FKRIVQRIKDFLRNLV] |  |  | 25 ± 1 | 30 | E. Coli MIC (wild type E. coli K12; K12, 16 h): 20 µM; KB LC50 (drug-sensitive KB): 30 ± 1 µM |
| GLFDIIKKIAESF [aurein 1.2, antimicrobial and anticancer peptide isolated from the Australian Bell Frog, reference compound] | 43 | 43.0 |  |  | tRP, retention time on a reversed-phase HPLC column as a measure of hydrophobicity [1]: 42.0 min; MIC (E. coli strain K12 3000 [3]): 75 µM |
| GLFDIIKKIAESW-NH2 (C-terminus assumed) [F13W-aurein 1.2, GLFDIIKKIAESW] |  | 40.5 |  |  | MIC (E. coli strain K12 3000 [4]): 320 µM |
| GLFDKLKSLVSDDKK [anchor, bacterial membrane anchor of glucose-specific enzyme IIA of E. coli, reference compound] | 29.5 | 29.5 |  |  | tRP, retention time on a reversed-phase HPLC column as a measure of hydrophobicity [1]: 29.5 min |
| IGKEFKRIVQRIKDFLRNLVPRTES [LL-37(13-37)] |  |  | 38 ± 3 | 39 | E. Coli MIC (wild type E. coli K12; K12, 16 h): 80 µM; KB LC50 (drug-sensitive KB): 40 ± 0 µM |
| LLGDFFRKSKEK [LL-37(1-12), LLGDFFRKSKEK] |  |  | > 320 | > 320 |  |
| LLGDFKRIVQRIKDF-NH2 [LL-37(1-4, 17-27), LLGDFKRIVQRIKDF] |  |  | > 320 | > 320 | E. Coli MIC (wild type E. coli K12; [5]): 250 µM |
| RLFDKIRQVIRKF-NH2 (C-terminus assumed) [LLAA, RLFDKIRQVIRKF] | 30.8 | 30.8 |  |  |  |
